Literature values in PMC4331071 (Clinical cancer research : an official journal of the …, 2013).

Test system: GRP78

For WIFPWIQL, the “efficacy among GRP78 binding peptides” value is listed as “highest efficacy”.
